How the values were obtained:
sedge, umbrella = assay: Test D flooded paddy test; type: in vivo, Cyperus difformis; conditions: 250 g ai/ha, applied to paddy water, visual rating after 13 to 14 days, scale 0 to 100 (0 no effect, 100 complete control)
How it was run: (§1)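 Seedlings reached the 2-leaf stage, then pots were flooded to 3 cm over the soil surface. Compound was applied into the water, depth was maintained, and plants stayed in the greenhouse 13 to 14 days before visual scoring (0–100) relative to controls.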

green foxtail [1] = assay: Test C postemergence; type: in vivo, Setaria viridis; conditions: 10 days, 0 to 100 scale (0 no effect, 100 complete control)
How it was run: (§2)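 Test material, in non-phytotoxic solvent with surfactant, was sprayed on the soil directly after seeding (preemergence) or on young plants of 2–10 cm with one to two leaves (postemergence). Greenhouse, 10 days; 0–100 visual control scale.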

blackgrass [2] = assay: Test C postemergence; type: in vivo, Alopecurus myosuroides; conditions: 10 days, 0 to 100 scale (0 no effect, 100 complete control)
How it was run: as §2

oat, wild [3] = assay: Test C preemergence; type: in vivo, Avena fatua
How it was run: as §2

ryegrass, Italian [4] = assay: Test C preemergence; type: in vivo, Lolium multiflorum
How it was run: as §2

oat, wild [5] = assay: Test C postemergence; type: in vivo, Avena fatua; conditions: 10 days, 0 to 100 scale (0 no effect, 100 complete control)
How it was run: as §2

corn [6] = assay: Test C preemergence; type: in vivo, Zea mays
How it was run: as §2

horseweed = assay: Test C postemergence; type: in vivo, Erigeron canadensis; conditions: 10 days, 0 to 100 scale (0 no effect, 100 complete control)
How it was run: as §2

soybean [7] = assay: Test C preemergence; type: in vivo, Glycine max
How it was run: as §2

ryegrass, Italian [8] = assay: Test C postemergence; type: in vivo, Lolium multiflorum; conditions: 10 days, 0 to 100 scale (0 no effect, 100 complete control)
How it was run: as §2

wheat [9] = assay: Test C postemergence; type: in vivo, Triticum aestivum; conditions: 10 days, 0 to 100 scale (0 no effect, 100 complete control)
How it was run: as §2

barnyardgrass [10] = assay: Test C postemergence; type: in vivo, Echinochloa crusgalli; conditions: 10 days, 0 to 100 scale (0 no effect, 100 complete control)
How it was run: as §2

kochia [11] = assay: Test C postemergence; type: in vivo, Bassia scoparia; conditions: 10 days, 0 to 100 scale (0 no effect, 100 complete control)
How it was run: as §2

blackgrass [12] = assay: Test C preemergence; type: in vivo, Alopecurus myosuroides
How it was run: as §2

barnyardgrass [13] = assay: Test D flooded paddy test; type: in vivo, Echinochloa crus-galli; conditions: 250 g ai/ha, applied to paddy water, visual rating after 13 to 14 days, scale 0 to 100 (0 no effect, 100 complete control)
How it was run: as §1

pigweed, palmer [14] = assay: Test C preemergence; type: in vivo, Amaranthus palmeri
How it was run: as §2

soybean [15] = assay: Test C postemergence; type: in vivo, Glycine max; conditions: 10 days, 0 to 100 scale (0 no effect, 100 complete control)
How it was run: as §2

galium = assay: Test C postemergence; type: in vivo, Galium aparine; conditions: 10 days, 0 to 100 scale (0 no effect, 100 complete control)
How it was run: as §2

barnyardgrass [16] = assay: Test C preemergence; type: in vivo, Echinochloa crusgalli
How it was run: as §2

ragweed [17] = assay: Test C postemergence; type: in vivo, Ambrosia artemisiifolia; conditions: 10 days, 0 to 100 scale (0 no effect, 100 complete control)
How it was run: as §2

ducksalad = assay: Test D flooded paddy test; type: in vivo, Heteranthera limosa; conditions: 250 g ai/ha, applied to paddy water, visual rating after 13 to 14 days, scale 0 to 100 (0 no effect, 100 complete control)
How it was run: as §1

ragweed [18] = assay: Test C preemergence; type: in vivo, Ambrosia artemisiifolia
How it was run: as §2

wheat [19] = assay: Test C preemergence; type: in vivo, Triticum aestivum
How it was run: as §2

green foxtail [20] = assay: Test C preemergence; type: in vivo, Setaria viridis
How it was run: as §2

rice = assay: Test D flooded paddy test; type: in vivo, Oryza sativa; conditions: 250 g ai/ha, applied to paddy water, visual rating after 13 to 14 days, scale 0 to 100 (0 no effect, 100 complete control)
How it was run: as §1

pigweed, palmer [21] = assay: Test C postemergence; type: in vivo, Amaranthus palmeri; conditions: 10 days, 0 to 100 scale (0 no effect, 100 complete control)
How it was run: as §2

corn [22] = assay: Test C postemergence; type: in vivo, Zea mays; conditions: 10 days, 0 to 100 scale (0 no effect, 100 complete control)
How it was run: as §2

kochia [23] = assay: Test C preemergence; type: in vivo, Bassia scoparia
How it was run: as §2

[24] = 500 g ai/ha, preemergence, 0 to 100 scale (0 no effect, 100 complete control)
[25] = Preemergence, 125 g ai/ha, 0 to 100 scale, 0 no effect, 100 complete control

## CC(C)c1ncn(-c2cccc(C(=O)N3CC(C(F)(F)F)Oc4c(Cl)cccc43)c2)n1 (stereo not shown) [Compound 348]
sedge, umbrella
  Plant response rating, Sedge, Umbrella (Flood): 45
Green foxtail [1]; 500 g ai/ha, postemergence
  Plant response rating, Foxtail, Green: 70
Green foxtail [1]; Postemergence, 125 g ai/ha
  Plant response rating, Foxtail, Green: 50
Blackgrass [2]; 500 g ai/ha, postemergence
  Plant response rating, Blackgrass: 100
Blackgrass [2]; Postemergence, 125 g ai/ha
  Plant response rating, Blackgrass: 70
oat, wild [3]; [24]
  Oat, Wild plant response rating: 90
oat, wild [3]; [25]
  Plant response rating, Oat, Wild: 60
ryegrass, Italian [4]; [24]
  Ryegrass, Italian plant response rating: 100
ryegrass, Italian [4]; [25]
  Plant response rating, Ryegrass, Italian: 90
oat, wild [5]; 500 g ai/ha, postemergence
  Plant response rating, Oat, Wild: 60
oat, wild [5]; Postemergence, 125 g ai/ha
  Plant response rating, Oat, Wild: 20
Corn [6]; [24]
  Corn plant response rating: 0
Corn [6]; [25]
  Plant response rating, Corn: 0
horseweed; 500 g ai/ha, postemergence
  Plant response rating, Horseweed: 40
horseweed; Postemergence, 125 g ai/ha
  Plant response rating, Horseweed: 0
Soybean [7]; [24]
  Soybean plant response rating: 80
Soybean [7]; [25]
  Plant response rating, Soybean: 40
ryegrass, Italian [8]; 500 g ai/ha, postemergence
  Plant response rating, Ryegrass, Italian: 70
ryegrass, Italian [8]; Postemergence, 125 g ai/ha
  Plant response rating, Ryegrass, Italian: 30
Wheat [9]; 500 g ai/ha, postemergence
  Plant response rating, Wheat: 30
Wheat [9]; Postemergence, 125 g ai/ha
  Plant response rating, Wheat: 10
Barnyardgrass [10]; 500 g ai/ha, postemergence
  Plant response rating, Barnyardgrass: 40
Barnyardgrass [10]; Postemergence, 125 g ai/ha
  Plant response rating, Barnyardgrass: 10
Kochia [11]; 500 g ai/ha, postemergence
  Plant response rating, Kochia: 100
Kochia [11]; Postemergence, 125 g ai/ha
  Plant response rating, Kochia: 70
Blackgrass [12]; [24]
  Blackgrass plant response rating: 90
Blackgrass [12]; [25]
  Plant response rating, Blackgrass: 50
Barnyardgrass [13]
  Plant response rating, Barnyardgrass (Flood): 30
pigweed, palmer [14]; [24]
  Pigweed, Palmer plant response rating: 100
pigweed, palmer [14]; [25]
  Plant response rating, Pigweed, Palmer: 100
Soybean [15]; 500 g ai/ha, postemergence
  Plant response rating, Soybean: 100
Soybean [15]; Postemergence, 125 g ai/ha
  Plant response rating, Soybean: 100
galium; 500 g ai/ha, postemergence
  Plant response rating, Galium: 100
galium; Postemergence, 125 g ai/ha
  Plant response rating, Galium: 100
Barnyardgrass [16]; [24]
  Barnyardgrass plant response rating: 100
Barnyardgrass [16]; [25]
  Plant response rating, Barnyardgrass: 60
Ragweed [17]; 500 g ai/ha, postemergence
  Plant response rating, Ragweed: 60
Ragweed [17]; Postemergence, 125 g ai/ha
  Plant response rating, Ragweed: 30
ducksalad
  Plant response rating, Ducksalad (Flood): 75
Ragweed [18]; [24]
  Ragweed plant response rating: 20
Ragweed [18]; [25]
  Plant response rating, Ragweed: 20
Wheat [19]; [24]
  Wheat plant response rating: 80
Wheat [19]; [25]
  Plant response rating, Wheat: 50
Green foxtail [20]; [24]
  Foxtail, Green plant response rating: 100
Green foxtail [20]; [25]
  Plant response rating, Foxtail, Green: 100
rice
  Plant response rating, Rice (Flood): 0
pigweed, palmer [21]; 500 g ai/ha, postemergence
  Plant response rating, Pigweed, Palmer: 100
pigweed, palmer [21]; Postemergence, 125 g ai/ha
  Plant response rating, Pigweed, Palmer: 90
Corn [22]; 500 g ai/ha, postemergence
  Plant response rating, Corn: 30
Corn [22]; Postemergence, 125 g ai/ha
  Plant response rating, Corn: 10
Kochia [23]; [24]
  Kochia plant response rating: 100
Kochia [23]; [25]
  Plant response rating, Kochia: 90

Reference: US20260262643A1, “HERBICIDAL BENZOXAZINES” (FMC CORPORATION, priority 2022, published 2026)
